# Earlier results in US20100047788A1, “METHOD AND KIT FOR DIAGNOSIS AND MONITORING OF THE TREATMENT OF CHRONIC TRIPANOSSOMIASIS AND CHAGAS DISEASE” (FUNDACÃO UNIVERSIDADE DE BRASÍLIA CDTCAMPUS UNIVER, priority 2006, published 2010).
# System: LINE-1
# Details: background statement; taken as indication of non occurrence of the kDNA integration
smiles,measurement,value
Cc1cn([C@H]2C[C@H](N=[N+]=[N-])[C@@H](CO)O2)c(=O)[nH]c1=O [AZT],effect on retrotransposition of LINE-1,prevented the retrotransposition of LINE-1
